The target in assay [1] is T1, human TREX2 (residues M44-A279) (Homo sapiens, UniProt Q9BQ50).
T1 construct: human TREX2 (residues M44-A279, expressed in E. coli); made in house; host or cells: E. coli
T1 sequence (Q9BQ50 44-279 isoform Q9BQ50-1): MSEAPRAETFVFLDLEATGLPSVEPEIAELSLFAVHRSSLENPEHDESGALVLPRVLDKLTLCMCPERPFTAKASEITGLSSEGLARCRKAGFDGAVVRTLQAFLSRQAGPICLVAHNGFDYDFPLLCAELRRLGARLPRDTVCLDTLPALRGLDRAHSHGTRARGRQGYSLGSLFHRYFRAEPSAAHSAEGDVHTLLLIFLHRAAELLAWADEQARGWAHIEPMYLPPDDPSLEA
As to the kind of experiment: hTREX2 Biochemical Assay (fluorescence, dsDNA substrate degradation). As to conditions: biochemical selectivity for hTREX1 vs hTREX2. In outline:
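Fluorogenic dsDNA degradation read at 615 nm (570 nm excitation) after EDTA quench. Final 60 nM substrate, 50 pM His-Tev-tagged enzyme, 5 mM MgCl2, pH 7.4, 1.0% DMSO; 4 h compound–enzyme preincubation then 18 h reaction, both 25 °C; 10-point titration.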

The target in assay [2] is T2, full length mouse TREX1 (Mus musculus, UniProt Q91XB0).
T2 construct: N-terminally His-Tev tagged full length mouse TREX1; made in house; host or cells: E. coli
T2 sequence (Q91XB0 1-314): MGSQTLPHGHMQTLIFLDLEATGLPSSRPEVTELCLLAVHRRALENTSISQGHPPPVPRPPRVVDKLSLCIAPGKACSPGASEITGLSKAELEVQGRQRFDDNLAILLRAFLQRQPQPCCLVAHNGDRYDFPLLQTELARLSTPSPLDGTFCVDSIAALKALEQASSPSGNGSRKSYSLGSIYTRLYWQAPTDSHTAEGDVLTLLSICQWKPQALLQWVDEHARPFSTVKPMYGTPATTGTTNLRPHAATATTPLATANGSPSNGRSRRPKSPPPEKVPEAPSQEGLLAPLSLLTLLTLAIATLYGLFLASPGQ
As to the kind of experiment: mTREX1 Biochemical Assay (fluorescence, dsDNA substrate degradation). The following applies: biochemical, read-out: mTREX1 IC50. In outline: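 Reaction run 18 h at 25° C. with 60 nM TEX615/quencher-labelled dsDNA and 6 pM mouse TREX1 in Tris buffer (pH 7.4, 5 mM MgCl2, 1.0% DMSO), enzyme having sat 4 h with compound across 10 concentrations. EDTA quench; substrate degradation measured as fluorescence increase.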

Assay [3] addresses T3, hTREX1 (Homo sapiens, UniProt Q9NSU2).
T3 construct: host or cells: HCT116 dual cells
T3 sequence (Q9NSU2 1-314): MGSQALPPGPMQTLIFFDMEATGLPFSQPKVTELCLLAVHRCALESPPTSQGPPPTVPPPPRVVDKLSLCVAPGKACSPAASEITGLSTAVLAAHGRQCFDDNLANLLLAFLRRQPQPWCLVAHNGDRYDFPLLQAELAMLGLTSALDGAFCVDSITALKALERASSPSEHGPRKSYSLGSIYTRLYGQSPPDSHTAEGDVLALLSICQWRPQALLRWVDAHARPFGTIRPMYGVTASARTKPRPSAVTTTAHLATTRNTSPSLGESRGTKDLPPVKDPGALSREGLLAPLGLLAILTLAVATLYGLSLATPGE
As to the kind of experiment: hTREX1 HCT116 Cell Assay (HCT116 dual cells, Lucia luciferase reporter of Type I interferon induction). The following applies: TREX1i 4 h before pBR322/BstNI transfection, read after 48 h. It is filed as cell-based. In outline:
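Type I interferon induction read as secreted Lucia luciferase 48 h after transfecting pBR322/BstNI digest (1 ug/mL, 100 ng/well) into HCT116 dual reporter cells. Compound added 4 h before transfection at up to 0.1% DMSO; cells in DMEM/10% FBS/25 mM HEPES at 37 °C.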
For orientation: Reporter assays use an easily measured gene product as a stand-in for the process of interest.

Assay [4] deals with T4, full length human TREX1 (Homo sapiens, UniProt Q9NSU2).
T4 construct: N-terminally His-Tev tagged full length human TREX1; made in house; host or cells: E. coli
T4 sequence (Q9NSU2 1-314): T3 sequence (Q9NSU2 1-314)
As to the kind of experiment: hTREX1 Biochemical Assay (fluorescence, dsDNA substrate degradation). The following applies: biochemical, read-out: hTREX1 IC50. In outline: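 Fluorescence rises as enzyme degrades a quenched TEX615-labelled dsDNA substrate (60 nM) in 50 mM Tris, 150 mM NaCl, 5 mM MgCl2, pH 7.4. Full-length His-Tev-tagged human TREX1, 4 pM, sits with compound 4 hours at 25° C before substrate; reaction 18 hours, stopped with EDTA.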

As to `COCCn1ncc(C(c2ccccc2C#N)C(C)c2nc(C(=O)Nc3cnoc3)c(O)c(=O)n2C)c1C` (single isomer, unassigned) [Example 69 D1E1], the “hTREX1 vs hTREX2 selectivity” value in assay [1] is given as “B (B = 25 to 50-fold selective for hTREX1)”. Moreover, the IC50 (in general, the concentration needed to halve the response being measured) fell in the range of 0.001 to 0.01 µM in assay [2], 0.01 to 0.1 µM in assay [3] and 0.001 to 0.01 µM in assay [4].

In the case of `CCn1cc(C(c2ccccc2C#N)C(C)c2nc(C(=O)Nc3cnoc3)c(O)c(=O)n2C)c(C)n1` (single isomer, unassigned) [Example 70 D1E1], the “hTREX1 vs hTREX2 selectivity” value in assay [1] is “C (C = >50 fold selective for hTREX1)”. The IC50 in assay [2] is less than 0.001 µM; in assay [3], less than 0.01 µM; in assay [4], less than 0.001 µM.

With `COCCn1cc(C(c2ccccc2C#N)C(C)c2nc(C(=O)Nc3cnoc3)c(O)c(=O)n2C)c(C)n1` (single isomer, unassigned) [Example 71 D1E1], the “hTREX1 vs hTREX2 selectivity” value in assay [1] was “C (C = >50 fold selective for hTREX1)”. Further, the IC50 is less than 0.001 µM in assay [2], less than 0.01 µM in assay [3] and less than 0.001 µM in assay [4].

As to `CC(c1nc(C(=O)Nc2cnoc2)c(O)c(=O)n1C)C(c1cnn(C)c1)c1ccccc1Cl` (single isomer, unassigned) [Example 77 D1E2], in assay [1], the “hTREX1 vs hTREX2 selectivity” value is on record as “A (A = <25 fold selective for hTREX1)”. The IC50 in assay [2] was more than 0.01 µM; in assay [3] it was more than 0.1 µM; in assay [4], more than 0.01 µM.

Consider `CC(c1nc(C(=O)Nc2cnoc2)c(O)c(=O)n1C)C(c1cnn(C)c1)c1ccccc1Cl` (single isomer, unassigned) [Example 77 D2E1], for which the “hTREX1 vs hTREX2 selectivity” value in assay [1] is “A (A = <25 fold selective for hTREX1)”. Moreover, the IC50 in assay [2] was more than 0.01 µM; in assay [3], more than 0.1 µM; in assay [4], more than 0.01 µM.

On to `CC(c1nc(C(=O)Nc2cnoc2)c(O)c(=O)n1C)C(c1nnn(C)n1)c1ccccc1C#N` (single isomer, unassigned) [Example 79 D1E2], for which, in assay [1], the “hTREX1 vs hTREX2 selectivity” value is “B (B = 25 to 50-fold selective for hTREX1)”. In addition, the concentration for half-maximal inhibition (IC50) in assay [2] is more than 0.01 µM; in assay [3], more than 0.1 µM; in assay [4], 0.001 to 0.01 µM.

In the case of `CC(c1nc(C(=O)Nc2cnoc2)c(O)c(=O)n1C)C(c1cnn(C)c1)c1ccc(O)cc1C#N` (single isomer, unassigned) [Example 80 D1E1], the “hTREX1 vs hTREX2 selectivity” value in assay [1] is reported as “C (C = >50 fold selective for hTREX1)”. Also, the IC50 in assay [2] was 0.001 to 0.01 µM; in assay [3], more than 0.1 µM; in assay [4] it was less than 0.001 µM.

With `Cc1ncc(C(c2ccccc2C#N)C(C)c2nc(C(=O)Nc3cnoc3)c(O)c(=O)n2C)nc1C` (single isomer, unassigned) [Example 81 D2E1], the “hTREX1 vs hTREX2 selectivity” value in assay [1] is recorded as “B (B = 25 to 50-fold selective for hTREX1)”. Moreover, the IC50 in assay [2] was more than 0.01 µM; in assay [3], more than 0.1 µM; in assay [4], 0.001 to 0.01 µM.

With `Cc1cnc(C)c(C(c2ccccc2C#N)C(C)c2nc(C(=O)Nc3cnoc3)c(O)c(=O)n2C)n1` (single isomer, unassigned) [Example 82 D1E1], the “hTREX1 vs hTREX2 selectivity” value in assay [1] was “C (C = >50 fold selective for hTREX1)”. In addition, the IC50 in assay [2] was 0.001 to 0.01 µM; in assay [3], less than 0.01 µM; in assay [4], less than 0.001 µM.

Consider `Cc1cnc(C)c(C(c2ccccc2C#N)C(C)c2nc(C(=O)Nc3cnoc3)c(O)c(=O)n2C)n1` (single isomer, unassigned) [Example 82 D2E1], for which, in assay [1], the “hTREX1 vs hTREX2 selectivity” value is reported as “C (C = >50 fold selective for hTREX1)”. Also, the IC50 in assay [2] is more than 0.01 µM; in assay [3], more than 0.1 µM; in assay [4] it was 0.001 to 0.01 µM.

In the case of `Cc1nccc(C(c2ccccc2C#N)C(C)c2nc(C(=O)Nc3cnoc3)c(O)c(=O)n2C)n1` (single isomer, unassigned) [Example 83 D1E1], the “hTREX1 vs hTREX2 selectivity” value in assay [1] was “C (C = >50 fold selective for hTREX1)”. The IC50 in assay [2] was more than 0.01 µM; in assay [3] it was 0.01 to 0.1 µM; in assay [4] it was less than 0.001 µM.

Take `Cc1nccc(C(c2ccccc2C#N)C(C)c2nc(C(=O)Nc3cnoc3)c(O)c(=O)n2C)n1` (single isomer, unassigned) [Example 83 D2E1]: the “hTREX1 vs hTREX2 selectivity” value in assay [1] was “B (B = 25 to 50-fold selective for hTREX1)”. Further, the IC50 in assay [2] is more than 0.01 µM; in assay [3], more than 0.1 µM; in assay [4] it was 0.001 to 0.01 µM.

Take `Cc1cnn(C)c1C(c1ccccc1C#N)C(C)c1nc(C(=O)Nc2cnoc2)c(O)c(=O)n1C` (single isomer, unassigned) [Example 84 D1E1]: in assay [1], the “hTREX1 vs hTREX2 selectivity” value is “B (B = 25 to 50-fold selective for hTREX1)”. Further, the IC50 in assay [2] was 0.001 to 0.01 µM; in assay [3], 0.01 to 0.1 µM; in assay [4], less than 0.001 µM.

For `CCn1cc(C(c2ccccc2Cl)C(C)c2nc(C(=O)Nc3cnoc3)c(O)c(=O)n2C)cn1` (single isomer, unassigned) [Example 85 D1E1], the “hTREX1 vs hTREX2 selectivity” value in assay [1] was “B (B = 25 to 50-fold selective for hTREX1)”. Besides, the IC50 is less than 0.001 µM in assay [2], 0.01 to 0.1 µM in assay [3] and less than 0.001 µM in assay [4].

`CCn1cc(C(c2ccccc2Cl)C(C)c2nc(C(=O)Nc3cnoc3)c(O)c(=O)n2C)cn1` (single isomer, unassigned) [Example 85 D1E2]: the “hTREX1 vs hTREX2 selectivity” value in assay [1] was “A (A = <25 fold selective for hTREX1)”. Also, the IC50 in assay [2] was more than 0.01 µM; in assay [3] it was more than 0.1 µM; in assay [4], 0.001 to 0.01 µM.

Take `CCn1cc(C(c2ccccc2Cl)C(C)c2nc(C(=O)Nc3cnoc3)c(O)c(=O)n2C)cn1` (single isomer, unassigned) [Example 85 D2E1]: in assay [1], the “hTREX1 vs hTREX2 selectivity” value is listed as “A (A = <25 fold selective for hTREX1)”. For the same compound, the values for the IC50 in assay [2], in assay [3] and in assay [4] were more than 0.01 µM, more than 0.1 µM and more than 0.01 µM, respectively.

As to `CC(c1nc(C(=O)Nc2cnoc2)c(O)c(=O)n1C)C(c1cnn(CC(C)(C)O)c1)c1ccccc1Cl` (single isomer, unassigned) [Example 86 D1E1], the “hTREX1 vs hTREX2 selectivity” value in assay [1] is on record as “B (B = 25 to 50-fold selective for hTREX1)”. Moreover, the IC50 was 0.001 to 0.01 µM in assay [2], more than 0.1 µM in assay [3] and less than 0.001 µM in assay [4].

As to `CC(c1nc(C(=O)Nc2cnoc2)c(O)c(=O)n1C)C(c1cnn(CC2COC2)c1)c1ccccc1Cl` (single isomer, unassigned) [Example 88 D1E1], the “hTREX1 vs hTREX2 selectivity” value in assay [1] was “A (A = <25 fold selective for hTREX1)”. The IC50 in assay [2] was 0.001 to 0.01 µM; in assay [3], more than 0.1 µM; in assay [4] it was less than 0.001 µM.

In the case of `CC(c1nc(C(=O)Nc2cnoc2)c(O)c(=O)n1C)C(c1cc(F)ccc1Cl)c1cn(C)nc1C#N` (single isomer, unassigned) [Example 89 D1E2], the “hTREX1 vs hTREX2 selectivity” value in assay [1] is reported as “C (C = >50 fold selective for hTREX1)”. Besides, the IC50 in assay [2] was 0.001 to 0.01 µM; in assay [3] it was less than 0.01 µM; in assay [4], less than 0.001 µM.

For `CC(c1nc(C(=O)Nc2cnoc2)c(O)c(=O)n1C)C(c1ccccc1C#N)c1cn(C)nc1F` (single isomer, unassigned) [Example 91 D1E2], the “hTREX1 vs hTREX2 selectivity” value in assay [1] was “A (A = <25 fold selective for hTREX1)”. Besides, the values for the IC50 in assay [2], in assay [3] and in assay [4] were more than 0.01 µM, more than 0.1 µM and more than 0.01 µM, respectively.

(Values after US20240246946A1, “MODULATORS OF TREX1” (Constellation Pharmaceuticals, Inc., priority 2021, published 2024).)
